Where a SMILES comes first, the peptide text is derived from it.
Tests used:
HUVECs [1] = assay type: cell-based, human; conditions: for toxicity to HUVECs (FIG. 15): MTS assay, 1, 10 or 100 nM, statement for high concentration (100 nM)
Description: Cell viability was detected by a methanethiosulfonate (MTS) assay. In brief, 2×10^4 HUVECs were seeded to a 48-well plates in 100 μl endothelial cell medium (ECM, ScienCell Research Laboratory, Cat. 1001, USA) per well and incubated for 24 hrs. The media was removed and the cells were then incubated with media having 2% fetal bovine serum (FBS), in the absence or presence of various peptides, such as PLY, PLY123, PLY4, C70PLY4 or N35PLY4, at a concentration of 1, 10 or 100 nM. After incubation for 18 hours, the media was removed and 20 μl MTS reagents (20%) were added to each well in the final volume of 100 μl and placed in incubator for 1 hours. The optical density was measured at 490 nm using a plate reader.

[2] = test system: neointima formation of aorta; assay: Neointima formation of aorta (HE stain) in STZ-treated HFD-fed rats; assay type: in vivo
Description: The ascending part of aorta were taken from mice, including control health mice and HFD induced diabetic mice, with and without treatment of C70PLY4, and kept in 10% formalin buffered for 24 h. The specimens were routinely embedded in paraffin blocks and cut in transversal sections (3 μm). The slides were stained with hematoxylin and eosin. The specimens were analyzed with light microscope.
The present study determined if C70PLY4 attenuates the status of atherosclerosis in HFD-fed rats.

HUVECs [3] = assay: Cell apoptosis, TUNEL assay in HUVECs; assay type: cell-based, human; conditions: positive control of TUNEL and caspase-3 assays
Description: Cell apoptosis was detected by using commercial terminal deoxynucleotidyl transferase-dUTP nick end labeling (TUNEL) and caspase-3 activity kits, i.e., Apo-BrdU in Situ DNA Fragmentation Assay Kit (BioVision) and NucView™ 488 Caspase-3 Enzyme Substrate (Biotium). In brief, after incubation with M199 media in the presence or absence of […] various PLY peptides, at 37° C., 5% CO2 for 1 hour, HUVECs were washed with PBS and fixed with fixation buffer on ice for 20 min. Cells were then soaked in 70% alcohol for 1 hr. After 2 times of wash by washing buffer, cells were incubated in DNA labeling solution for 60 min at 37° C. Cells were then treated with rinse buffer and incubated with antibody buffer for 30 min at room temperature. The cell nuclei were stained with propidium iodide for 30 min. Samples were observed by fluorescent microscopeand photographed charge-coupled device (CCD) camera.

MD2/TLR4 interaction = MD2/TLR4 interaction (Homo sapiens, UniProt O00206); assay: In vitro protein competition binding assay for MD2/TLR4 interaction; conditions: MD2 50 nM, peptide 50 μM to 3.05 nM
Description: The recombinant TLR4 protein was diluted in PBS (2 μg/mL) and immobilized on a 96-well (100 ng/well) ELISA plate by incubation at 37° C. for 2 h. The wells were washed three times with PBS, followed by blocking with the addition of 300 μL 5% BSA in PBS at ambient temperature overnight. Then, the plate was rewashed three times with PBST before performed competition binding assay. The binding of MD2 (50 nM) to TLR4 was competed by adding various amounts (2-fold serial dilution from 50 μM to 3.05 nM) of C70PLY4, N35PLY4, or M50PLY4 peptide, and the residual binding was examined using anti-MD2 and anti-mouse-IgG-HRP antibodies diluted in 1% BSA as described in herein.

recombinant TLR4 protein = recombinant TLR4 protein (Homo sapiens, UniProt O00206); assay: In vitro protein binding assay for MD2 and TLR4 (ELISA); conditions: TLR4 2 μg/mL coated, MD2 133.3 to 0.065 nM; read-out: Kd, binding affinity to the TLR4 protein
Description: The recombinant TLR4 protein was diluted in phosphate buffer saline (PBS) (2 μg/mL) and immobilized on a 96-well (100 ng/well) enzyme-linked immunosorbent assay (ELISA) plate by incubation at 37° C. for 2 h. The wells were washed three times with PBS, followed by blocking with the addition of 300 μL 5% bovine serum albumin (BSA) in PBS at ambient temperature overnight. Then, the plate was washed three times with PBST (PBS with 0.05% Tween 20 solution) before the addition of the recombinant MD2 protein solutions at various concentrations (2-fold serial dilution from 133.3 to 0.065 nM). The ligands (MD2) and TLR4 proteins were incubated at 37° C. for 2 h, and the plate was then washed three times with PBST, followed by the addition of 100 μL anti-MD2 antibodies diluted in 1% BSA (1:1000). After incubation at ambient temperature for 1 h, the plate was washed with PBST three times, followed by the addition of 100 μL anti-mouse IgG-HRP antibodies diluted in 1% BSA (1:2000). After incubation at ambient temperature for 1 h, the plate was washed with PBST three times, followed by the addition of 100 μL of the HRP substrate (i.e. 3,3′,5,5′-tetramethylbenzidine, TMB) to each well. […] The optical density (OD450) in each well was determined using an ELISA plate reader. […]

TLR4 = assay: LPS-induced PMN transendothelial migration, PMNs from wild type C3H/HeN mice; assay type: cell-based; conditions: for LPS induced PMN migration (FIGS. 11-12): WT mice model
Description: (§1) To obtain mice neutrophils from TLR4-deficient [TLR4(−/−)] C3H/HeJ mice and wild type C3H/HeN mice, inflammation was induced by 0.1 ml of uric acid solution into the peritoneal cavity of the mouse. The uric acid solution (noncrystalline form) was prepared by mixing with saline (10% [wt/vol]) and sonicated for 10 min. Immediately before inoculation, the milky white precipitated uric acid solution was shaken vigorously. Peritoneal exudate cells were harvested 4, 18, or 24 h after injection by two lavages of the peritoneal cavity with 5 ml of cold phosphate-buffered saline (PBS; total volume, 10 ml). Uric acid-induced peritoneal cells (UAPMN) were washed by centrifugation at 200×g for 10 min at 4° C. Followed by hypotonic lysis to eliminate red blood cells, centrifugation and an additional wash were performed. The cells were then resuspended in Krebs-Ringer phosphate buffer (KRG; pH 7.3). The numbers and populations of peritoneal exudate cells were determined by staining the nuclei with Turk reagent and by cytospin centrifugation followed by May-Grünwald-Giemsa staining, respectively. Uric acid injection into the peritoneal cavity gave a yield of 1 to 2×10^7 cells/mouse depending on time of incubation (4 hr). The levels of purity of the uric acid-induced PMN were 95% after 4 h postinjection. Viability of the isolated neutrophils exceeded 95% as determined by trypan blue exclusion. The PMN from TLR4(−/−) C3H/HeJ mice and wild type C3H/HeN mice were then used for PMN transmigration Assay.
Neutrophils from human were isolated blood that was drawn in a syringe containing preservative-free heparin (20 U/ml final), and mixed with an equal volume of PBS containing 3% dextran and then incubated for 20 min at room temperature. The leukocyte-rich plasma (upper layer) was collected and pellet cells was obtained from the plasma by centrifuge and resuspended in 0.9% NaCl. Layer 10 ml Ficoll-Hypaque solution beneath the cell suspension. After centrifuge 1500×g for 20 min, aspirate the Ficoll-Hypaque layer, leaving the neutrophil/RBC pellet. Cells were subjected to hypotonic lysis by resuspending each neutrophil/RBC pellet in cold 0.2% NaCl for 30 sec. At the end of this period, restore isotonicity by adding ice-cold 1.6% NaCl. After centrifuge, resuspend cells in ice-cold PBS/glucose buffer. Neutrophils from mice were isolated from the peritoneum as previously described. See, e.g., Rabes et al., Curr Top Microbiol Immunol 397:215-227 (2016). The cell concentration was adjusted to […]. The viability of the isolated neutrophils exceeded 95%, as determined by Trypan blue exclusion.
Transendothelial migration was performed by using a Transwell system. Transwell filters were pre-seeded with HUVEC monolayers for 24 hrs and transferred to clean 24-well plates. HUVECs were washed twice with DPBS, 500 μl of ECM was added to the Transwell filter compartment and 10^6 neutrophils were then added in upper chamber. Transendothelial migration was stimulated by addition of LPS to the lower chamber to a final concentration of 1 μg/ml. Cells were incubated with the endothelial cells for 1 h at 37° C. At the conclusion of the incubation, migrated cells were collected from the lower chamber and counted in a hemacytometer in triplicate. Percent PMN transmigration was calculated by dividing the number of PMN recovered from the lower chamber by the number of PMN initially added.
PMN transendothelial migration plays an important role in early stage of atherogenesis. […].

[4] = test system: PMNs isolated from TLR4(−/−) mice C3H/HeJ; assay: LPS-induced PMN transendothelial migration, PMNs from TLR4(-/-) C3H/HeJ mice; assay type: cell-based; conditions: LPS 1 μg/ml, HUVEC monolayer Transwell
Description: as §1, with “Followed by hypotonic lysis to eliminate red blood cells, centrifugation and an additional wash were performed. The cells were then resuspended in Krebs-Ringer phosphate buffer (KRG; pH 7.3).” left out, “Uric acid injection into the peritoneal cavity gave a yield of 1 to 2×10^7 cells/mouse depending on time of incubation (4 hr). The levels of purity of the uric acid-induced PMN were 95% after 4 h postinjection.” left out, “The PMN from TLR4(−/−) C3H/HeJ mice and wild type C3H/HeN mice were then used for PMN transmigration Assay.” left out
Neutrophils from human were isolated blood that was drawn in a syringe containing preservative-free heparin (20 U/ml final), and mixed with an equal volume of PBS containing 3% dextran and then incubated for 20 min at room temperature. […] The viability of the isolated neutrophils exceeded 95%, as determined by Trypan blue exclusion. […]

recombinant TLR4 protein, sequence (O00206 24-839): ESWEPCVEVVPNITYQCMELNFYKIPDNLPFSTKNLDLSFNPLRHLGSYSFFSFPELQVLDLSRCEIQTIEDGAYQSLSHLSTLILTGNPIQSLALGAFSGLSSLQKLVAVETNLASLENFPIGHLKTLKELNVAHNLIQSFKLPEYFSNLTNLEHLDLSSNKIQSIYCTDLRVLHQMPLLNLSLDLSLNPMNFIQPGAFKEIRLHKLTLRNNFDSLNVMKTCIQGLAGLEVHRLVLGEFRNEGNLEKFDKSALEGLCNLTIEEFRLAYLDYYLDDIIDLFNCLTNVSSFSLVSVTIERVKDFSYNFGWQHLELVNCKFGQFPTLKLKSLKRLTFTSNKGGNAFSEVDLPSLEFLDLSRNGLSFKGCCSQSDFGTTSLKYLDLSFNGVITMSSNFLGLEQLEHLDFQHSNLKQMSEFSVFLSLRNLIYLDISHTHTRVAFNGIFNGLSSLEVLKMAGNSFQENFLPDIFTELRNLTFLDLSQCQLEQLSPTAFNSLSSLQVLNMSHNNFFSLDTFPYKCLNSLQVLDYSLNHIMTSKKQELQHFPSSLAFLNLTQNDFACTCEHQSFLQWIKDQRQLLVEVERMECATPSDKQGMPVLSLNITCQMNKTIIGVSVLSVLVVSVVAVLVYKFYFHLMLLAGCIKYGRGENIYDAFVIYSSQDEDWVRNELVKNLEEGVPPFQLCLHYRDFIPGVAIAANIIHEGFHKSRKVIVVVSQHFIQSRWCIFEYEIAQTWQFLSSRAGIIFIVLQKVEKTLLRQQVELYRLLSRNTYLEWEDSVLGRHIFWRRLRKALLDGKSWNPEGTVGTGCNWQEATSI
MD2/TLR4 interaction, sequence (O00206 24-631): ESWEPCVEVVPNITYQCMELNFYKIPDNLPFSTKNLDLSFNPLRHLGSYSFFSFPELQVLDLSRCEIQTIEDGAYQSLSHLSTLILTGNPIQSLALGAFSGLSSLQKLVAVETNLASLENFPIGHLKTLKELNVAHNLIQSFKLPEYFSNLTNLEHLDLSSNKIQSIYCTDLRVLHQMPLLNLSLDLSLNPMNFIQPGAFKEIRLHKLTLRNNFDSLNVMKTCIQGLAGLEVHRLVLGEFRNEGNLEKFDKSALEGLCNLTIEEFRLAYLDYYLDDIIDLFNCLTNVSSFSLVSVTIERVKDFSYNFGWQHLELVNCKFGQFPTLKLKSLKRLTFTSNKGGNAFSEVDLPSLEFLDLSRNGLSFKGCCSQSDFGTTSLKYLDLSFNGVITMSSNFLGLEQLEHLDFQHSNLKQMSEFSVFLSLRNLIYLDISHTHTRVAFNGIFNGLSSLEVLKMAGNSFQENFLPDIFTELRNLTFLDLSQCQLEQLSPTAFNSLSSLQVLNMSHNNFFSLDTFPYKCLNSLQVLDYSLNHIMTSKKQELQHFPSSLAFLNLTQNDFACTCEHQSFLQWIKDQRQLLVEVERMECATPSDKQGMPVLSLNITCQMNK

Compound: CC[C@H](C)[C@H](NC(=O)[C@H](CCCCN)NC(=O)[C@@H](NC(=O)[C@H](CO)NC(=O)[C@H](CC(C)C)NC(=O)[C@H](CC(N)=O)NC(=O)[C@H](CCCNC(=N)N)NC(=O)[C@@H](NC(=O)[C@H](CC(N)=O)NC(=O)CNC(=O)[C@H](CCCCN)NC(=O)[C@H](CC(C)C)NC(=O)[C@@H]1CCCN1C(=O)[C@@H](NC(=O)[C@H](CO)NC(=O)[C@@H](NC(=O)[C@@H](NC(=O)[C@H](Cc1ccccc1)NC(=O)[C@H](Cc1c[nH]cn1)NC(=O)[C@H](C)NC(=O)[C@@H](NC(=O)[C@H](CC(C)C)NC(=O)[C@H](CC(=O)O)NC(=O)[C@@H](N)CCC(N)=O)[C@@H](C)O)[C@@H](C)O)[C@@H](C)O)[C@@H](C)CC)C(C)C)C(C)C)C(=O)N[C@@H](CCCNC(=N)N)C(=O)N[C@@H](CCC(=O)O)C(=O)N[C@@H](CS)C(=O)N[C@H](C(=O)NCC(=O)N[C@@H](CC(C)C)C(=O)N[C@@H](C)C(=O)N[C@@H](Cc1c[nH]c2ccccc12)C(=O)N[C@@H](CCC(=O)O)C(=O)N[C@@H](Cc1c[nH]c2ccccc12)C(=O)N[C@@H](Cc1c[nH]c2ccccc12)C(N)=O)[C@@H](C)O [N35PLY4] (H-QDLTAHFTTSIPLKGNVRNLSVKIRECTGLAWEWW-NH2)
- toxicity to HUVECs (FIG. 15) (HUVECs [1]): no toxic effects

Compound: CC(=O)N[C@@H](CS)C(=O)O [NAC, N-acetylcycteine, reference compound]
- neointima formation of aorta induced by STZ [2]: partially improve the STZ effect on the neointima formation

Compound: CC[C@@]1(O)C(=O)OCc2c1cc1n(c2=O)Cc2cc3ccccc3nc2-1 [camptothecin, reference compound]
- apoptotic cells (HUVECs [3]): about 60%

Compound: M50PLY4: peptide of 6th to 55th amino acid residues of C70PLY4 (407-456), lacking the N-terminal motif QDLTA, SEQ ID NO: 8 (HFTTSIPLKGNVRNLSVKIRECTGLAWEWWRTVYEKTDLPLVRKRTISIW) [reference compound]
- blocking capability for MD2 and TLR4 protein interaction (in words) (MD2/TLR4 interaction): no competitive capability

Compound: MD2: recombinant MD2 protein, an extracellular protein associated with the extracellular domain of TLR4 protein
- Kd (recombinant TLR4 protein): 0.0184 ± 0.0039 µM

Compound: N35PLY4m24L25K: N35PLY4 with double mutations, position 24 I to L and position 25 R to K, SEQ ID NO: 7 (QDLTAHFTTSIPLKGNVRNLSVKLKECTGLAWEWW)
- LPS induced PMN migration (FIGS. 11-12) (TLR4): inhibitory effects

Compound: N35PLY4m25K (QDLTAHFTTSIPLKGNVRNLSVKIKECTGLAWEWW)
- LPS induced PMN migration (FIGS. 11-12) (TLR4): inhibitory effects

Compound: full-length PLY: full length pneumococcal pneumolysin, 1-471 amino acid residues, SEQ ID NO: 1, prepared by recombinant technology [reference compound]
- PMNs migration, WT mice model (FIG. 10) (TLR4; PMNs from C3H/HeN mice, LPS 1 μg/ml, HUVEC monolayer Transwell): did not affect the PMNs migration
- LPS induced PMN migration (FIGS. 11-12) (TLR4): enhances PMN migration induced by LPS
- cells survived (HUVECs [1]; HUVECs, 100 nM, 18 hours, MTS): 30%
- toxicity to HUVECs (FIG. 15) (HUVECs [1]): toxic to cells
- PMNs migration, TLR4(−/−) mice model (FIG. 10) [4]: did not affect the PMNs migration
